Measured values reported in PMC12305662, “Fragment-Based Development of Small Molecule Inhibitors Targeting Mycobacterium tuberculosis Cholesterol Metabolism” (Journal of Medicinal Chemistry, 2025).

Key:
CYP125 = CYP125 (Mycobacterium tuberculosis, UniProt P9WPP1); type: binding; settings: fragment 1 mM, P450 4-6 µM; Soret shift relative to DMSO (393 nm)
CYP142 = CYP142 (Mycobacterium tuberculosis, UniProt P9WPL5); settings: fragment 1 mM, P450 4-6 µM; relative to DMSO (418.5 nm)
CYP124 = CYP124 (Mycobacterium tuberculosis, UniProt P9WPP3); settings: fragment 1 mM, P450 4-6 µM; relative to DMSO (419 nm)
CYP121 = CYP121 (Mycobacterium tuberculosis, UniProt P9WPP7); settings: fragment 1 mM, P450 4-6 µM; relative to DMSO (417 nm)
CYP126 = CYP126 (Mycobacterium tuberculosis, UniProt P9WPN9); settings: fragment 1 mM, P450 4-6 µM; relative to DMSO (418 nm)
CYP143 = CYP143 (Mycobacterium tuberculosis, UniProt P9WPL3); settings: fragment 1 mM, P450 4-6 µM; relative to DMSO (416 nm)
CYP144 = CYP144 (Mycobacterium tuberculosis, UniProt P9WPL1); settings: fragment 1 mM, P450 4-6 µM; relative to DMSO (421 nm)
CYP144, sequence (P9WPL1 whole entry, the tested form may be a part): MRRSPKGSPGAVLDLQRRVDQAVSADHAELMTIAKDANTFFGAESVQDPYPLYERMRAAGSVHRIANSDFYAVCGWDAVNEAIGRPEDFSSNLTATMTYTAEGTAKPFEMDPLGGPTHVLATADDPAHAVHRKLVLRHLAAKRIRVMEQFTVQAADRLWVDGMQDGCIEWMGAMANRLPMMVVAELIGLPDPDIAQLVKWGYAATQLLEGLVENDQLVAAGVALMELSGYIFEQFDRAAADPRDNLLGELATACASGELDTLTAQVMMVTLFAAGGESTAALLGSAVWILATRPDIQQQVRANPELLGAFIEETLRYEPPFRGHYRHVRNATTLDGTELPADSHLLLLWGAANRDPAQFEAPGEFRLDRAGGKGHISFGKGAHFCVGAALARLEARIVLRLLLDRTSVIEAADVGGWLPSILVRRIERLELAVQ

CYP142, sequence (P9WPL5 whole entry, the tested form may be a part): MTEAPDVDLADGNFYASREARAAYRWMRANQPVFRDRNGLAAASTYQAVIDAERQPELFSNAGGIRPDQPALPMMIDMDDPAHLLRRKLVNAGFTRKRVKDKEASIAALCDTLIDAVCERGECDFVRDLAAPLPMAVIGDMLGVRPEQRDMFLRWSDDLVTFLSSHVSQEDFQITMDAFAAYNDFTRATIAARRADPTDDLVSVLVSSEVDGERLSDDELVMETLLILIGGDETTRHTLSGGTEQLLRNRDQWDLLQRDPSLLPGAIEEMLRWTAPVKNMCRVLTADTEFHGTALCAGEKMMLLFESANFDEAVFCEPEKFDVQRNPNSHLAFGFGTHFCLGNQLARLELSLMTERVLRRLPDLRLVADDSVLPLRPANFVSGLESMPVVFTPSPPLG
CYP125, sequence (P9WPP1 whole entry, the tested form may be a part): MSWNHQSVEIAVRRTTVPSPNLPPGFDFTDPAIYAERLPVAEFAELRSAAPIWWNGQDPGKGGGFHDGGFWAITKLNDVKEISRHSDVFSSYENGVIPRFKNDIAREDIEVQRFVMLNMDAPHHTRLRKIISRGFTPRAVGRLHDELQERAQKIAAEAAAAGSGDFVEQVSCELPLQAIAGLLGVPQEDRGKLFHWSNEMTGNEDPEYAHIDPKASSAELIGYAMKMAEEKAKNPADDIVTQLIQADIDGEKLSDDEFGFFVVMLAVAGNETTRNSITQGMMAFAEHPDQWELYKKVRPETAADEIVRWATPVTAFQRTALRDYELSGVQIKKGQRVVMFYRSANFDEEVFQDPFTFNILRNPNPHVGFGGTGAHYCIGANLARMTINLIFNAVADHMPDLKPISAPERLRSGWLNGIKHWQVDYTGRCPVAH
CYP143, sequence (P9WPL3 whole entry, the tested form may be a part): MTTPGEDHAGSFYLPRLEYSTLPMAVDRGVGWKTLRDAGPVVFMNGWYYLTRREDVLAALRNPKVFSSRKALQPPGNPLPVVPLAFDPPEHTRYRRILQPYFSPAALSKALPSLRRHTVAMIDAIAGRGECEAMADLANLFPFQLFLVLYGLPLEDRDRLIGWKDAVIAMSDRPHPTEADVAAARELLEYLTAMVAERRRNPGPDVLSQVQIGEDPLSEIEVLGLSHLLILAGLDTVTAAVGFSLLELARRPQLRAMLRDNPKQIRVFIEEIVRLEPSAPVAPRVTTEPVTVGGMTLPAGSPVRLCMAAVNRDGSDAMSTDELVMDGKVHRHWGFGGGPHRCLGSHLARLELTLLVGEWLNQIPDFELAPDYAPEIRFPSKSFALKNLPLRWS
CYP121, sequence (P9WPP7 whole entry, the tested form may be a part): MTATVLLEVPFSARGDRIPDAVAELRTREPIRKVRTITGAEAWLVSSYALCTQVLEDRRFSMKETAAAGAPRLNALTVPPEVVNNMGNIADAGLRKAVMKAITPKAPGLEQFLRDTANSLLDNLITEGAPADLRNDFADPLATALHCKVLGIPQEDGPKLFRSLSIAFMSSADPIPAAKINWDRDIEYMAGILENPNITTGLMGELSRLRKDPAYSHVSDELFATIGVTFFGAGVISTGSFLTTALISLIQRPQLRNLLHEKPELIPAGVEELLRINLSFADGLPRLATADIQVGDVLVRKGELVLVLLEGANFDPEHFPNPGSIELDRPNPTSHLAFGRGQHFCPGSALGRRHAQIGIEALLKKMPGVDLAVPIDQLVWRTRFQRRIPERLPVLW
CYP124, sequence (P9WPP3 whole entry, the tested form may be a part): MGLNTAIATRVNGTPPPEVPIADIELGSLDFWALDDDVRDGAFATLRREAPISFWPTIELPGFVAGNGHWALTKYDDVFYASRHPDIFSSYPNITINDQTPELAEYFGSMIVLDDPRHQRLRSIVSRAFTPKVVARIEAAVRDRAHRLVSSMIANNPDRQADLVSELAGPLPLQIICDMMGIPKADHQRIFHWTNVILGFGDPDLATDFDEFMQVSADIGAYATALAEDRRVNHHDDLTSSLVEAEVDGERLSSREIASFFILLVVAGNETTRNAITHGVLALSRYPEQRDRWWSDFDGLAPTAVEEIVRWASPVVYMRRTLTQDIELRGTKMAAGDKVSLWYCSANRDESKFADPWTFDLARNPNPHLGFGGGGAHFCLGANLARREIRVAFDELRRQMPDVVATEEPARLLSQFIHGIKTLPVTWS
CYP126, sequence (P9WPN9 whole entry, the tested form may be a part): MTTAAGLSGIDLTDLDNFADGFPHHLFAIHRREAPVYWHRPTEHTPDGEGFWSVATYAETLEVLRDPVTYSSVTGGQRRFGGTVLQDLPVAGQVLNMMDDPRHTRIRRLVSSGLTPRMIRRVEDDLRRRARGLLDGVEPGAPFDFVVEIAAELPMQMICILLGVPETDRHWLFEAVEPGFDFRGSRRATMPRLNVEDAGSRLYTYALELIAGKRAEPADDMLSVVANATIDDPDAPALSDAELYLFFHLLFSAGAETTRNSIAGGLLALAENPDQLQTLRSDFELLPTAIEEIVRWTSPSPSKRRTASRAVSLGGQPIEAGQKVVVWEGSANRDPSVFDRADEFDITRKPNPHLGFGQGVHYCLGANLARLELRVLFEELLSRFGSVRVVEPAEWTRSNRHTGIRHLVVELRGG

Cn1nc(-c2ccccc2)cc1N [compound 11]
Δλmax (nm) CYP125, fragment screen (CYP125): 0 nm | Δλmax (nm) CYP142, fragment screen (CYP142): 0 nm | Δλmax (nm) CYP124, fragment screen (CYP124): 0 nm | Δλmax (nm) CYP121, fragment screen (CYP121): 0 nm | Δλmax (nm) CYP126, fragment screen (CYP126): 0 nm | Δλmax (nm) CYP143, fragment screen (CYP143): -0.5 nm | Δλmax (nm) CYP144, fragment screen (CYP144): 0 nm

Clc1cncc(Cl)c1 [compound 19]
Δλmax (nm) CYP125, fragment screen (CYP125): 0 nm | Δλmax (nm) CYP142, fragment screen (CYP142): 0 nm | Δλmax (nm) CYP124, fragment screen (CYP124): 0 nm | Δλmax (nm) CYP121, fragment screen (CYP121): 0 nm | Δλmax (nm) CYP126, fragment screen (CYP126): 0 nm | Δλmax (nm) CYP143, fragment screen (CYP143): 0 nm | Δλmax (nm) CYP144, fragment screen (CYP144): 0 nm

Nc1ccc(-n2cccn2)cc1 [compound 49]
Δλmax (nm) CYP125, fragment screen (CYP125): 0 nm | Δλmax (nm) CYP142, fragment screen (CYP142): 0 nm | Δλmax (nm) CYP124, fragment screen (CYP124): 0 nm | Δλmax (nm) CYP121, fragment screen (CYP121): 0 nm | Δλmax (nm) CYP126, fragment screen (CYP126): 2 nm | Δλmax (nm) CYP143, fragment screen (CYP143): 1 nm | Δλmax (nm) CYP144, fragment screen (CYP144): 0 nm

Oc1ccccn1 [compound 44]
Δλmax (nm) CYP125, fragment screen (CYP125): 0 nm | Δλmax (nm) CYP142, fragment screen (CYP142): 0 nm | Δλmax (nm) CYP124, fragment screen (CYP124): 0 nm | Δλmax (nm) CYP121, fragment screen (CYP121): 0 nm | Δλmax (nm) CYP126, fragment screen (CYP126): 0 nm | Δλmax (nm) CYP143, fragment screen (CYP143): -0.5 nm | Δλmax (nm) CYP144, fragment screen (CYP144): 0 nm

COc1ccc(C(C)=O)cn1 [compound 31]
Δλmax (nm) CYP125, fragment screen (CYP125): 0 nm | Δλmax (nm) CYP142, fragment screen (CYP142): 0 nm | Δλmax (nm) CYP124, fragment screen (CYP124): 0 nm | Δλmax (nm) CYP121, fragment screen (CYP121): 0 nm | Δλmax (nm) CYP126, fragment screen (CYP126): 0 nm | Δλmax (nm) CYP143, fragment screen (CYP143): 0.5 nm | Δλmax (nm) CYP144, fragment screen (CYP144): 0 nm

O=C(O)c1ccnn1-c1ccccc1 [compound 51]
Δλmax (nm) CYP125, fragment screen (CYP125): 0 nm | Δλmax (nm) CYP142, fragment screen (CYP142): 0 nm | Δλmax (nm) CYP124, fragment screen (CYP124): 0 nm | Δλmax (nm) CYP121, fragment screen (CYP121): -1 nm | Δλmax (nm) CYP126, fragment screen (CYP126): 0 nm | Δλmax (nm) CYP143, fragment screen (CYP143): 0.5 nm | Δλmax (nm) CYP144, fragment screen (CYP144): 0 nm

CNCc1cccc(-c2ccccc2)c1 [compound 21]
Δλmax (nm) CYP125, fragment screen (CYP125): 25 nm | Δλmax (nm) CYP142, fragment screen (CYP142): 3 nm | Δλmax (nm) CYP124, fragment screen (CYP124): -1 nm | Δλmax (nm) CYP121, fragment screen (CYP121): 0 nm | Δλmax (nm) CYP126, fragment screen (CYP126): 1 nm | Δλmax (nm) CYP143, fragment screen (CYP143): 4 nm | Δλmax (nm) CYP144, fragment screen (CYP144): 0 nm

Nc1ccc(Cl)nn1 [compound 73]
Δλmax (nm) CYP125, fragment screen (CYP125): 0 nm | Δλmax (nm) CYP142, fragment screen (CYP142): 0 nm | Δλmax (nm) CYP124, fragment screen (CYP124): 0 nm | Δλmax (nm) CYP121, fragment screen (CYP121): 0 nm | Δλmax (nm) CYP126, fragment screen (CYP126): 0 nm | Δλmax (nm) CYP143, fragment screen (CYP143): 0 nm | Δλmax (nm) CYP144, fragment screen (CYP144): 0 nm

O=C(O)c1ccc(-c2cccnc2)cc1 [compound 53]
Δλmax (nm) CYP125, fragment screen (CYP125): 0 nm | Δλmax (nm) CYP142, fragment screen (CYP142): 0 nm | Δλmax (nm) CYP124, fragment screen (CYP124): 0 nm | Δλmax (nm) CYP121, fragment screen (CYP121): 0 nm | Δλmax (nm) CYP126, fragment screen (CYP126): 0 nm | Δλmax (nm) CYP143, fragment screen (CYP143): 1 nm | Δλmax (nm) CYP144, fragment screen (CYP144): 0 nm

Clc1ncccc1Br [compound 57]
Δλmax (nm) CYP125, fragment screen (CYP125): 0 nm | Δλmax (nm) CYP142, fragment screen (CYP142): 0 nm | Δλmax (nm) CYP124, fragment screen (CYP124): 0 nm | Δλmax (nm) CYP121, fragment screen (CYP121): -1 nm | Δλmax (nm) CYP126, fragment screen (CYP126): 0 nm | Δλmax (nm) CYP143, fragment screen (CYP143): 0.5 nm | Δλmax (nm) CYP144, fragment screen (CYP144): 0 nm

O=C(O)c1cncc(F)c1 [compound 60]
Δλmax (nm) CYP125, fragment screen (CYP125): 0 nm | Δλmax (nm) CYP142, fragment screen (CYP142): 0 nm | Δλmax (nm) CYP124, fragment screen (CYP124): 0 nm | Δλmax (nm) CYP121, fragment screen (CYP121): 0 nm | Δλmax (nm) CYP126, fragment screen (CYP126): 0 nm | Δλmax (nm) CYP143, fragment screen (CYP143): 1 nm | Δλmax (nm) CYP144, fragment screen (CYP144): 0 nm

c1ccc(Cc2cccnc2)cc1 [compound 20]
Δλmax (nm) CYP125, fragment screen (CYP125): 28 nm | Δλmax (nm) CYP142, fragment screen (CYP142): 3 nm | Δλmax (nm) CYP124, fragment screen (CYP124): 1 nm | Δλmax (nm) CYP121, fragment screen (CYP121): 2 nm | Δλmax (nm) CYP126, fragment screen (CYP126): 1 nm | Δλmax (nm) CYP143, fragment screen (CYP143): 2 nm | Δλmax (nm) CYP144, fragment screen (CYP144): 0 nm

CCc1nc(C)c[nH]1 [compound 67]
Δλmax (nm) CYP125, fragment screen (CYP125): 0 nm | Δλmax (nm) CYP142, fragment screen (CYP142): 0 nm | Δλmax (nm) CYP124, fragment screen (CYP124): 0 nm | Δλmax (nm) CYP121, fragment screen (CYP121): -1 nm | Δλmax (nm) CYP126, fragment screen (CYP126): 0 nm | Δλmax (nm) CYP143, fragment screen (CYP143): 0 nm | Δλmax (nm) CYP144, fragment screen (CYP144): 0 nm

Cc1ccc(=O)[nH]n1 [compound 7]
Δλmax (nm) CYP125, fragment screen (CYP125): 0 nm | Δλmax (nm) CYP142, fragment screen (CYP142): 0 nm | Δλmax (nm) CYP124, fragment screen (CYP124): 0 nm | Δλmax (nm) CYP121, fragment screen (CYP121): 0 nm | Δλmax (nm) CYP126, fragment screen (CYP126): 0 nm | Δλmax (nm) CYP143, fragment screen (CYP143): 0 nm | Δλmax (nm) CYP144, fragment screen (CYP144): 0 nm

O=C(O)CCc1nc2ccccc2[nH]1 [compound 34]
Δλmax (nm) CYP125, fragment screen (CYP125): 0 nm | Δλmax (nm) CYP142, fragment screen (CYP142): 0 nm | Δλmax (nm) CYP124, fragment screen (CYP124): 0 nm | Δλmax (nm) CYP121, fragment screen (CYP121): 0 nm | Δλmax (nm) CYP126, fragment screen (CYP126): 0 nm | Δλmax (nm) CYP143, fragment screen (CYP143): 0.5 nm | Δλmax (nm) CYP144, fragment screen (CYP144): 0 nm

O=C(O)CCc1ccccc1 [compound 36]
Δλmax (nm) CYP125, fragment screen (CYP125): 0 nm | Δλmax (nm) CYP142, fragment screen (CYP142): 0 nm | Δλmax (nm) CYP124, fragment screen (CYP124): 0 nm | Δλmax (nm) CYP121, fragment screen (CYP121): 0 nm | Δλmax (nm) CYP126, fragment screen (CYP126): 2 nm | Δλmax (nm) CYP143, fragment screen (CYP143): 1 nm | Δλmax (nm) CYP144, fragment screen (CYP144): 0 nm

COC(=O)c1cc2ccccc2cn1 [compound 26]
Δλmax (nm) CYP125, fragment screen (CYP125): 0 nm | Δλmax (nm) CYP142, fragment screen (CYP142): 0 nm | Δλmax (nm) CYP124, fragment screen (CYP124): 0 nm | Δλmax (nm) CYP121, fragment screen (CYP121): 0 nm | Δλmax (nm) CYP126, fragment screen (CYP126): 0 nm | Δλmax (nm) CYP143, fragment screen (CYP143): 1 nm | Δλmax (nm) CYP144, fragment screen (CYP144): 0 nm

O=C(O)c1cccc(O)n1 [compound 30]
Δλmax (nm) CYP125, fragment screen (CYP125): 0 nm | Δλmax (nm) CYP142, fragment screen (CYP142): 0 nm | Δλmax (nm) CYP124, fragment screen (CYP124): 0 nm | Δλmax (nm) CYP121, fragment screen (CYP121): 0 nm | Δλmax (nm) CYP126, fragment screen (CYP126): 0 nm | Δλmax (nm) CYP143, fragment screen (CYP143): 1 nm | Δλmax (nm) CYP144, fragment screen (CYP144): 0 nm

N#Cc1ccccn1 [compound 40]
Δλmax (nm) CYP125, fragment screen (CYP125): 0 nm | Δλmax (nm) CYP142, fragment screen (CYP142): 0 nm | Δλmax (nm) CYP124, fragment screen (CYP124): 0 nm | Δλmax (nm) CYP121, fragment screen (CYP121): 0 nm | Δλmax (nm) CYP126, fragment screen (CYP126): 0 nm | Δλmax (nm) CYP143, fragment screen (CYP143): 0.5 nm | Δλmax (nm) CYP144, fragment screen (CYP144): 0 nm

O=C(O)c1ccnnc1 [compound 1]
Δλmax (nm) CYP125, fragment screen (CYP125): 0 nm | Δλmax (nm) CYP142, fragment screen (CYP142): 0 nm | Δλmax (nm) CYP124, fragment screen (CYP124): 0 nm | Δλmax (nm) CYP121, fragment screen (CYP121): -1 nm | Δλmax (nm) CYP126, fragment screen (CYP126): 0 nm | Δλmax (nm) CYP143, fragment screen (CYP143): 0.5 nm | Δλmax (nm) CYP144, fragment screen (CYP144): 0 nm

Cc1[nH]ncc1-c1ccccc1 [compound 14]
Δλmax (nm) CYP125, fragment screen (CYP125): -2 nm | Δλmax (nm) CYP142, fragment screen (CYP142): 1.5 nm | Δλmax (nm) CYP124, fragment screen (CYP124): 3 nm | Δλmax (nm) CYP121, fragment screen (CYP121): 0 nm | Δλmax (nm) CYP126, fragment screen (CYP126): 0 nm | Δλmax (nm) CYP143, fragment screen (CYP143): 0 nm | Δλmax (nm) CYP144, fragment screen (CYP144): 0 nm

COC(=O)c1ccnc(N)c1 [compound 25]
Δλmax (nm) CYP125, fragment screen (CYP125): 0 nm | Δλmax (nm) CYP142, fragment screen (CYP142): 0 nm | Δλmax (nm) CYP124, fragment screen (CYP124): 0 nm | Δλmax (nm) CYP121, fragment screen (CYP121): 0 nm | Δλmax (nm) CYP126, fragment screen (CYP126): 0 nm | Δλmax (nm) CYP143, fragment screen (CYP143): 0.5 nm | Δλmax (nm) CYP144, fragment screen (CYP144): 0 nm
